Results from patent US12692261B2, “Substituted heterocyclic compounds and therapeutic uses thereof” (Bayer Aktiengesellschaft, priority 2020, dated 2026).
Where two headings read alike, the source gives them in different places.

Legend:
[1] = target: T1, full-length human CSNK1A1 (Homo sapiens, UniProt P48729); assay: CSNK1A1 High ATP Assay (ADP-Glo, 1 mM ATP); assay type: biochemical; details: Table 3, read-out: CSNK1A1 high ATP assay IC50 [mol/l] (median);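 note: 30 min kinase reaction at 22 °C with 100 µM peptide substrate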
T1 construct: N-terminal Glutathion-S-Transferase (GST) and full-length human CSNK1A1; purchased Life Technologies PV4174; host or cells: baculovirus infected insect cells
T1 sequence (P48729 whole entry): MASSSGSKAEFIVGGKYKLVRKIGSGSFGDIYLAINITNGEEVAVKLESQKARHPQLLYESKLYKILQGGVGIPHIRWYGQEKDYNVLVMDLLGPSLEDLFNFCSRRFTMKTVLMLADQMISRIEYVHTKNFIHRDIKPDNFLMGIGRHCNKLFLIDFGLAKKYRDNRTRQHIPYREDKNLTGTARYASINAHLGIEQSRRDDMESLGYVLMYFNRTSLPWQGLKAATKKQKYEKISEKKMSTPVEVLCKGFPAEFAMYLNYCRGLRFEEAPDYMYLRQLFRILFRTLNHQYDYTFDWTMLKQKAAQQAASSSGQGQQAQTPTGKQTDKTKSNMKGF
Method in brief: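 Kinase activity taken as ADP generated, quantified by ADP-Glo luminescence after 1 h ATP depletion and 1 h detection at 22 °C. Enzyme is GST–full-length human CSNK1A1 (insect cell-expressed), pre-bound to compound for 15 min, with phosphopeptide substrate and 1 mM ATP.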

[2] = target: T2, wild-type Epidermal Growth Factor Receptor (EGFR) (Homo sapiens, UniProt P00533); assay: WT-EGFR Kinase Assay (TR-FRET, 2 mM ATP); assay type: biochemical
T2 construct: a fragment of human EGFR (amino acids R669 to A1210); made in house; host or cells: Sf9 insect cells
T2 sequence (P00533 669-1210): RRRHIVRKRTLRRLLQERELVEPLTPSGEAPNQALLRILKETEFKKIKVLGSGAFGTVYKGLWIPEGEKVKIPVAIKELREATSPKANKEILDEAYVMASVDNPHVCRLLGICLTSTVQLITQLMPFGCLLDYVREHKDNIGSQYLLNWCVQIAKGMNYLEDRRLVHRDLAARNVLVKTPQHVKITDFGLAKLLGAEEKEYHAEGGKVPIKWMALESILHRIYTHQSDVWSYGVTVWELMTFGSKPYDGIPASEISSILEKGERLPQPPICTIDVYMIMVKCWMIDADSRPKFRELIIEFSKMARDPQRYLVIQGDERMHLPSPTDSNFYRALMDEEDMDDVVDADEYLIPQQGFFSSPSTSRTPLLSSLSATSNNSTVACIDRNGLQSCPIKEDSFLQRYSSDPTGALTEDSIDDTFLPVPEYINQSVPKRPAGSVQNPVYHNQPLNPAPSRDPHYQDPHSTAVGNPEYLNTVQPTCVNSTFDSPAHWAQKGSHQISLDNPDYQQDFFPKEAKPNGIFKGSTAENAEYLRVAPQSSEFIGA
Method in brief: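 GST-fused human EGFR fragment (R669-A1210) from Sf9 cells, typically 7.6 pg/μL, pre-incubated with compound 15 min at 22° C in Hepes pH 7.0 buffer with MgCl2, DTT and vanadate; biotinylated peptide substrate. After EDTA stop, phosphopeptide detected by TR-FRET (anti-phosphotyrosine Tb-cryptate/streptavidin-XL665), 665/620 nm emission ratio.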

[3] = EGFR Wildtyp 2 mM ATP IC50 [mol/l] (median), Table 4
[4] = read-out: EGFR Wildtyp 2 mM ATP IC50 [mol/l] (median), Table 4

Row | Structure (SMILES) | IC50 [1] [nM] | IC50 [2, 3] [nM] | IC50 [2, 4] [nM]
1 | O=C(Nc1cc(-c2[nH]c3c(CC4CC4)cc(F)nc3c2-c2ccccn2)ccn1)C(CC(F)F)c1ccc(F)cc1 (single isomer, unassigned) [Example 47, (2R or S)—N-{4-[7-(cyclopropylmethyl)-5-fluoro-3-(pyridin-2-yl)-1H-pyrrolo[3,2-b]pyridin-2-yl]pyridin-2-yl}-4,4-difluoro-2-(4-fluorophenyl)butanamide] | 31.6 | > 20000 | 
2 | O=C(Nc1cc(-c2[nH]c3c(CC4CC4)cc(F)nc3c2-c2ccccn2)ccn1)C(CC(F)F)c1ccc(F)cc1 (single isomer, unassigned) [Example 48, (2R or S)—N-{4-[7-(cyclopropylmethyl)-5-fluoro-3-(pyridin-2-yl)-1H-pyrrolo[3,2-b]pyridin-2-yl]pyridin-2-yl}-4,4-difluoro-2-(4-fluorophenyl)butanamide] | 9.91 |  | > 20000
3 | O=C(Nc1cc(-c2[nH]c3c(N4CCNCC4)ccnc3c2-c2ccccn2)ccn1)C(CC(F)F)c1ccc(F)cc1 (single isomer, unassigned) [Example 93, (2R or S)-4,4-difluoro-2-(4-fluorophenyl)-N-{4-[7-(piperazin-1-yl)-3-(pyridin-2-yl)-1H-pyrrolo[3,2-b]pyridin-2-yl]pyridin-2-yl}butanamide] | 5.35 | > 20000 | 
4 | O=C(Nc1cc(-c2[nH]c3c(N4CCNCC4)ccnc3c2-c2ccccn2)ccn1)C(CC(F)F)c1ccc(F)cc1 (single isomer, unassigned) [Example 94, (2R or S)-4,4-difluoro-2-(4-fluorophenyl)-N-{4-[7-(piperazin-1-yl)-3-(pyridin-2-yl)-1H-pyrrolo[3,2-b]pyridin-2-yl]pyridin-2-yl}butanamide] | 2.31 |  | > 20000
5 | O=C(Nc1cc(-c2[nH]c3ccc(F)nc3c2-c2cc(F)ccn2)ccn1)C(CC(F)F)c1ccc(F)cc1 (single isomer, unassigned) [Example 96, (2R or S)-4,4-difluoro-N-{4-[5-fluoro-3-(4-fluoropyridin-2-yl)-1H-pyrrolo[3,2-b]pyridin-2-yl]pyridin-2-yl}-2-(4-fluorophenyl)butanamide] | 4.67 | > 20000 | 
6 | O=C(Nc1cc(-c2[nH]c3ccc(F)nc3c2-c2cc(F)ccn2)ccn1)C(CC(F)F)c1ccc(F)cc1 (single isomer, unassigned) [Example 97, (2R or S)-4,4-difluoro-N-{4-[5-fluoro-3-(4-fluoropyridin-2-yl)-1H-pyrrolo[3,2-b]pyridin-2-yl]pyridin-2-yl}-2-(4-fluorophenyl)butanamide] | 36 |  | > 20000
7 | CC(C)(O)c1cc(F)nc2c(-c3ccccn3)c(-c3ccnc(NC(=O)C(CC(F)F)c4ccc(F)cc4)c3)[nH]c12 (single isomer, unassigned) [Example 99, (2R or S)-4,4-difluoro-N-{4-[5-fluoro-7-(2-hydroxypropan-2-yl)-3-(pyridin-2-yl)-1H-pyrrolo[3,2-b]pyridin-2-yl]pyridin-2-yl}-2-(4-fluorophenyl)butanamide] | 3.55 | > 20000 | 
8 | CC(C)(O)c1cc(F)nc2c(-c3ccccn3)c(-c3ccnc(NC(=O)C(CC(F)F)c4ccc(F)cc4)c3)[nH]c12 (single isomer, unassigned) [Example 100, (2R or S)-4,4-difluoro-N-{4-[5-fluoro-7-(2-hydroxypropan-2-yl)-3-(pyridin-2-yl)-1H-pyrrolo[3,2-b]pyridin-2-yl]pyridin-2-yl}-2-(4-fluorophenyl)butanamide] | 33.6 |  | > 20000
9 | COc1cnc2c(-c3ccccn3)c(-c3ccnc(NC(=O)C(CC(F)F)c4ccc(F)cc4)c3)[nH]c2n1 (single isomer, unassigned) [Example 102, 4,4-difluoro-2-(4-fluorophenyl)-N-{4-[3-methoxy-7-(pyridin-2-yl)-5H-pyrrolo[2,3-b]pyrazin-6-yl]pyridin-2-yl}butanamide] | 31.1 | > 20000 | 
10 | COc1cnc2c(-c3ccccn3)c(-c3ccnc(NC(=O)C(CC(F)F)c4ccc(F)cc4)c3)[nH]c2n1 (single isomer, unassigned) [Example 103, 4,4-difluoro-2-(4-fluorophenyl)-N-{4-[3-methoxy-7-(pyridin-2-yl)-5H-pyrrolo[2,3-b]pyrazin-6-yl]pyridin-2-yl}butanamide] | 1.97 |  | > 20000
11 | O=C(Nc1cc(-c2[nH]c3c(C4CCCO4)cc(F)nc3c2-c2ccccn2)ccn1)C(CC(F)F)c1ccc(F)cc1 (single isomer, unassigned) [Example 115, (2R or S)-4,4-difluoro-N-(4-{5-fluoro-7-[(2R or S)-oxolan-2-yl]-3-(pyridin-2-yl)-1H-pyrrolo[3,2-b]pyridin-2-yl}pyridin-2-yl)-2-(4-fluorophenyl)butanamide] | 23.1 | 19600 | 
12 | O=C(Nc1cc(-c2[nH]c3c(C4CCCO4)cc(F)nc3c2-c2ccccn2)ccn1)C(CC(F)F)c1ccc(F)cc1 (single isomer, unassigned) [Example 116, (2R or S)-4,4-difluoro-N-(4-{5-fluoro-7-[(2R or S)-oxolan-2-yl]-3-(pyridin-2-yl)-1H-pyrrolo[3,2-b]pyridin-2-yl}pyridin-2-yl)-2-(4-fluorophenyl)butanamide] | 13.2 | 15100 | 
13 | O=C(Nc1cc(-c2[nH]c3c(C4CCCO4)cc(F)nc3c2-c2ccccn2)ccn1)C(CC(F)F)c1ccc(F)cc1 (single isomer, unassigned) [Example 117, (2R or S)-4,4-difluoro-N-(4-{5-fluoro-7-[(2R or S)-oxolan-2-yl]-3-(pyridin-2-yl)-1H-pyrrolo[3,2-b]pyridin-2-yl}pyridin-2-yl)-2-(4-fluorophenyl)butanamide] | 3570 | > 20000 | 
14 | O=C(Nc1cc(-c2[nH]c3c(C4CCCO4)cc(F)nc3c2-c2ccccn2)ccn1)C(CC(F)F)c1ccc(F)cc1 (single isomer, unassigned) [Example 118, (2R or S)-4,4-difluoro-N-(4-{5-fluoro-7-[(2R or S)-oxolan-2-yl]-3-(pyridin-2-yl)-1H-pyrrolo[3,2-b]pyridin-2-yl}pyridin-2-yl)-2-(4-fluorophenyl)butanamide] | 6660 | > 20000 | 
15 | O=C(Nc1cc(-c2[nH]c3nccnc3c2-c2ccccn2)ccn1)C(CC(F)(F)F)c1ccc(F)cc1 (single isomer, unassigned) [Example 120, (2R or S)-4,4,4-trifluoro-2-(4-fluorophenyl)-N-{4-[7-(pyridin-2-yl)-5H-pyrrolo[2,3-b]pyrazin-6-yl]pyridin-2-yl}butanamide] | 35.8 | > 20000 | 
16 | O=C(Nc1cc(-c2[nH]c3nccnc3c2-c2ccccn2)ccn1)C(CC(F)(F)F)c1ccc(F)cc1 (single isomer, unassigned) [Example 121, (2R or S)-4,4,4-trifluoro-2-(4-fluorophenyl)-N-{4-[7-(pyridin-2-yl)-5H-pyrrolo[2,3-b]pyrazin-6-yl]pyridin-2-yl}butanamide] | 946 |  | > 20000
17 | O=C(Nc1cc(-c2[nH]c3c(OCC(F)(F)F)ncnc3c2-c2ccccn2)ccn1)C(CC(F)F)c1ccc(F)cc1 (single isomer, unassigned) [Example 123, (2R or S)-4,4-difluoro-2-(4-fluorophenyl)-N-{4-[7-(pyridin-2-yl)-4-(2,2,2-trifluoroethoxy)-5H-pyrrolo[3,2-d]pyrimidin-6-yl]pyridin-2-yl}butanamide] | 14 | > 20000 | 
18 | O=C(Nc1cc(-c2[nH]c3c(OCC(F)(F)F)ncnc3c2-c2ccccn2)ccn1)C(CC(F)F)c1ccc(F)cc1 (single isomer, unassigned) [Example 124, (2R or S)-4,4-difluoro-2-(4-fluorophenyl)-N-{4-[7-(pyridin-2-yl)-4-(2,2,2-trifluoroethoxy)-5H-pyrrolo[3,2-d]pyrimidin-6-yl]pyridin-2-yl}butanamide] | 2180 |  | > 20000
19 | O=C(Nc1cc(-c2[nH]c3c(OCC(F)(F)F)ncnc3c2-c2ccccn2)ccn1)C(CC(F)(F)F)c1ccc(F)cc1 (single isomer, unassigned) [Example 126, (2R or S)-4,4,4-trifluoro-2-(4-fluorophenyl)-N-{4-[7-(pyridin-2-yl)-4-(2,2,2-trifluoroethoxy)-5H-pyrrolo[3,2-d]pyrimidin-6-yl]pyridin-2-yl}butanamide] | 20 | > 20000 | 
20 | O=C(Nc1cc(-c2[nH]c3c(OCC(F)(F)F)ncnc3c2-c2ccccn2)ccn1)C(CC(F)(F)F)c1ccc(F)cc1 (single isomer, unassigned) [Example 127, (2R or S)-4,4,4-trifluoro-2-(4-fluorophenyl)-N-{4-[7-(pyridin-2-yl)-4-(2,2,2-trifluoroethoxy)-5H-pyrrolo[3,2-d]pyrimidin-6-yl]pyridin-2-yl}butanamide] | > 20000 |  | > 20000
21 | O=C(Nc1cc(-c2[nH]c3c(OCC4CC4)ncnc3c2-c2ccccn2)ccn1)C(CC(F)F)c1ccc(F)cc1 (single isomer, unassigned) [Example 129, (2R or S)—N-{4-[4-(cyclopropylmethoxy)-7-(pyridin-2-yl)-5H-pyrrolo[3,2-d]pyrimidin-6-yl]pyridin-2-yl}-4,4-difluoro-2-(4-fluorophenyl)butanamide] | 10.3 | 9500 | 
